In ChEMBL document CHEMBL4330059, “Discovery of N1-(4-((7-(3-(4-ethylpiperazin-1-yl)propoxy)-6-methoxyquinolin-4-yl)oxy)-3,5-difluorophenyl)-N3-(2-(2,6-difluorophenyl)-4-oxothiazolidin-3-yl)urea as a multi-tyrosine kinase inhibitor for drug-sensitive and drug-resistant cancers treatment” (Eur J Med Chem, 2019):
The source made the active and inactive calls. The rule behind the calls is not given here.

Assays:
HT-29 [1] = assay: Induction of apoptosis in human HT-29 cells assessed as late apoptotic cells at 3 ug/mL after 72 hrs by Annexin V-FITC/propidium iodide staining-based flow cytometric analysis (reference value: 0.1%); type: functional
[2] = molecular target: T1, Tyrosine-protein kinase receptor UFO (Homo sapiens, UniProt P30530); assay: Inhibition of AXL (unknown origin) using FAM-labelled peptide and ATP incubated for 10 mins by mobility shift assay
T1 sequence (P30530 whole entry): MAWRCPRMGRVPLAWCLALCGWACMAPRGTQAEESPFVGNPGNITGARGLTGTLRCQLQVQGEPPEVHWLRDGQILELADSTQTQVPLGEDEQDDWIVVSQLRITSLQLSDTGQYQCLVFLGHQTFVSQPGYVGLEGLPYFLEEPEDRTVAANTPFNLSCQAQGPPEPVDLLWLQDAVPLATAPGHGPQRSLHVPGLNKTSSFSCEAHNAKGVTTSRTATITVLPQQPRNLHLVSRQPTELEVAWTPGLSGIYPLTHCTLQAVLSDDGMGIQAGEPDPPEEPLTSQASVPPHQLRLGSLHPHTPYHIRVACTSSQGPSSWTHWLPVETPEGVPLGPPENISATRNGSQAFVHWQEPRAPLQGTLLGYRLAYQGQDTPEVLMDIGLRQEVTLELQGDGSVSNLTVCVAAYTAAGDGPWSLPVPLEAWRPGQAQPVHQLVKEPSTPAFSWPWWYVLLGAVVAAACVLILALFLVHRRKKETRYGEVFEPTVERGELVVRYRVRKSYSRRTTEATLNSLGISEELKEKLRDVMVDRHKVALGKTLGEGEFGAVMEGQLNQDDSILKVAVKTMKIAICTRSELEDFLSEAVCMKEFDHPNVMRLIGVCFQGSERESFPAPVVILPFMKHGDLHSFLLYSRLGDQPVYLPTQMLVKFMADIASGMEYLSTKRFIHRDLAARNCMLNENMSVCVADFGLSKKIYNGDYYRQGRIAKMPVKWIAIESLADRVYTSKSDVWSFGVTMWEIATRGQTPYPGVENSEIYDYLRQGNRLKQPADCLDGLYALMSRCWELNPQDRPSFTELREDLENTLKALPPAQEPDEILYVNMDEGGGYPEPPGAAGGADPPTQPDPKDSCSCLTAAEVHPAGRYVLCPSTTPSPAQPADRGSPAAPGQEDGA

[3] = Selectivity index, ratio of IC50 for human FHC cells to IC50 for human HT-29 cells; type: toxicity; details: FHC cells and HT-29 cells, read-out: Ratio IC50
[4] = molecular target: Macrophage-stimulating protein receptor (Homo sapiens, UniProt Q04912); assay: Inhibition of Ron (unknown origin) using FAM-labelled peptide and ATP incubated for 10 mins by mobility shift assay
HT-29 [5] = assay: Induction of apoptosis in human HT-29 cells assessed as early apoptotic cells at 0.1 ug/mL after 72 hrs by Annexin V-FITC/propidium iodide staining-based flow cytometric analysis (reference value: 0%); type: functional
HT-29 [6] = assay: Cytotoxicity against human HT-29 cells assessed as increase in dead cells after 72 hrs by yoyo-1 dye-based fluorescence assay; type: functional, cell-based
A549/CDDP = assay: Antiproliferative activity against human A549/CDDP cells after 72 hrs by MTT assay; type: functional, cell-based
[7] = molecular target: T2, Hepatocyte growth factor receptor (Homo sapiens, UniProt P08581); assay: Inhibition of c-Met in human HT-29 cells assessed as decrease in Akt phosphorylation at 3 ug/mL after 72 hrs by Western blot analysis; type: cell-based
HT-29 [8] = assay: Induction of apoptosis in human HT-29 cells assessed as early apoptotic cells at 3 ug/mL after 72 hrs by Annexin V-FITC/propidium iodide staining-based flow cytometric analysis (reference value: 0%); type: functional
HT-29 [9] = assay: Induction of apoptosis in human HT-29 cells assessed as late apoptotic cells at 1 ug/mL after 72 hrs by Annexin V-FITC/propidium iodide staining-based flow cytometric analysis (reference value: 0.1%); type: functional
HT-29 [10] = assay: Induction of apoptosis in human HT-29 cells after 72 hrs by Annexin V-FITC/propidium iodide staining-based flow cytometric analysis; type: functional, cell-based
[11] = molecular target: T2, Hepatocyte growth factor receptor; assay: Inhibition of c-Met in human HT-29 cells assessed as decrease in ERK1/2 phosphorylation at 3 ug/mL after 72 hrs by Western blot analysis; type: cell-based
HT-29 [12] = assay: Antiproliferative activity against human HT-29 cells assessed as cell confluence level at 10 ug/ml after 72 hrs by IncuCyte live-cell imaging assay (reference value: 87.5%); type: functional
[13] = molecular target: Receptor tyrosine-protein kinase erbB-2 (Homo sapiens, UniProt P04626); assay: Inhibition of HER-2 (unknown origin) using FAM-labelled peptide and ATP incubated for 10 mins by mobility shift assay
HT-29 [14] = assay: Antiproliferative activity against human HT-29 cells assessed as cell confluence level at 0.37 ug/ml after 0 to 12 hrs by IncuCyte live-cell imaging assay (reference value: 87.5%); type: functional
[15] = molecular target: ALK tyrosine kinase receptor (Homo sapiens, UniProt Q9UM73); assay: Inhibition of ALK (unknown origin) using FAM-labelled peptide and ATP incubated for 10 mins by mobility shift assay
HT-29 [16] = assay: Antiproliferative activity against human HT-29 cells after 72 hrs by IncuCyte live-cell imaging assay; type: functional, cell-based
HT-29 [17] = assay: Induction of apoptosis in human HT-29 cells assessed as late apoptotic cells at 0.1 ug/mL after 72 hrs by Annexin V-FITC/propidium iodide staining-based flow cytometric analysis (reference value: 0.1%); type: functional
[18] = molecular target: T2, Hepatocyte growth factor receptor; assay: Inhibition of c-Met (unknown origin) using FAM-labelled peptide and ATP incubated for 10 mins by mobility shift assay
A549 = assay: Antiproliferative activity against human A549 cells after 72 hrs by MTT assay; type: functional, cell-based; details: A549, 72 h
[19] = molecular target: T2, Hepatocyte growth factor receptor; assay: Inhibition of c-Met phosphorylation in human HT-29 cells at 3 ug/mL after 72 hrs by Western blot analysis; type: cell-based
MCF7 = assay: Antiproliferative activity against human MCF7 cells after 72 hrs by MTT assay; type: functional, cell-based; details: MCF7, 72 h
[20] = molecular target: Vascular endothelial growth factor receptor 2 (Homo sapiens, UniProt P35968); assay: Inhibition of KDR (unknown origin) using FAM-labelled peptide and ATP incubated for 10 mins by mobility shift assay
HT-29 [21] = assay: Induction of apoptosis in human HT-29 cells assessed as early apoptotic cells at 1 ug/mL after 72 hrs by Annexin V-FITC/propidium iodide staining-based flow cytometric analysis (reference value: 0%); type: functional
HT-29 [22] = assay: Induction of apoptosis in human HT-29 cells assessed as early apoptotic cells at 0.3 ug/mL after 72 hrs by Annexin V-FITC/propidium iodide staining-based flow cytometric analysis (reference value: 0%); type: functional
HT-29 [23] = assay: Cytotoxicity against human HT-29 cells assessed as increase in dead cells at 3.33 ug/mL up to 72 hrs by yoyo-1 dye-based fluorescence assay; type: functional, cell-based
[24] = molecular target: Epidermal growth factor receptor (Homo sapiens, UniProt P00533); assay: Inhibition of EGFR (unknown origin) using FAM-labelled peptide and ATP incubated for 10 mins by mobility shift assay
[25] = Antiproliferative activity against human MCF7/DX cells after 72 hrs by MTT assay; type: functional, cell-based
FHC = assay: Cytotoxicity against human FHC cells after 72 hrs by MTT assay; type: cell-based
HT-29 [26] = assay: Antimigratory activity against human HT-29 cells at <3.33 ug/mL after 48 to 72 hrs by wound healing assay; type: functional, cell-based
HT-29 [27] = assay: Antimigratory activity against human HT-29 cells at 3.33 ug/mL after 48 to 72 hrs by wound healing assay; type: functional, cell-based
[28] = molecular target: Mast/stem cell growth factor receptor Kit (Homo sapiens, UniProt P10721); assay: Inhibition of c-Kit (unknown origin) using FAM-labelled peptide and ATP incubated for 10 mins by mobility shift assay
MDA-MB-231 = assay: Antiproliferative activity against human MDA-MB-231 cells after 72 hrs by MTT assay; type: functional, cell-based; details: MDA-MB-231, 72 h
[29] = molecular target: Insulin-like growth factor 1 receptor (Homo sapiens, UniProt P08069); assay: Inhibition of IGF-1R (unknown origin) using FAM-labelled peptide and ATP incubated for 10 mins by mobility shift assay
[30] = molecular target: Proto-oncogene tyrosine-protein kinase Src (Homo sapiens, UniProt P12931); assay: Inhibition of c-Src (unknown origin) using FAM-labelled peptide and ATP incubated for 10 mins by mobility shift assay
HT-29 [31] = assay: Cytotoxicity against human HT-29 cells assessed as increase in dead cells at 0.01 ug/mL after 72 hrs by yoyo-1 dye-based fluorescence assay; type: functional, cell-based
HT-29 [32] = assay: Antiproliferative activity against human HT-29 cells after 72 hrs by MTT assay; type: functional, cell-based; details: HT-29, 72 h
HT-29 [33] = assay: Induction of apoptosis in human HT-29 cells assessed as late apoptotic cells at 0.3 ug/mL after 72 hrs by Annexin V-FITC/propidium iodide staining-based flow cytometric analysis (reference value: 0.1%); type: functional

T2 sequence (P08581 whole entry): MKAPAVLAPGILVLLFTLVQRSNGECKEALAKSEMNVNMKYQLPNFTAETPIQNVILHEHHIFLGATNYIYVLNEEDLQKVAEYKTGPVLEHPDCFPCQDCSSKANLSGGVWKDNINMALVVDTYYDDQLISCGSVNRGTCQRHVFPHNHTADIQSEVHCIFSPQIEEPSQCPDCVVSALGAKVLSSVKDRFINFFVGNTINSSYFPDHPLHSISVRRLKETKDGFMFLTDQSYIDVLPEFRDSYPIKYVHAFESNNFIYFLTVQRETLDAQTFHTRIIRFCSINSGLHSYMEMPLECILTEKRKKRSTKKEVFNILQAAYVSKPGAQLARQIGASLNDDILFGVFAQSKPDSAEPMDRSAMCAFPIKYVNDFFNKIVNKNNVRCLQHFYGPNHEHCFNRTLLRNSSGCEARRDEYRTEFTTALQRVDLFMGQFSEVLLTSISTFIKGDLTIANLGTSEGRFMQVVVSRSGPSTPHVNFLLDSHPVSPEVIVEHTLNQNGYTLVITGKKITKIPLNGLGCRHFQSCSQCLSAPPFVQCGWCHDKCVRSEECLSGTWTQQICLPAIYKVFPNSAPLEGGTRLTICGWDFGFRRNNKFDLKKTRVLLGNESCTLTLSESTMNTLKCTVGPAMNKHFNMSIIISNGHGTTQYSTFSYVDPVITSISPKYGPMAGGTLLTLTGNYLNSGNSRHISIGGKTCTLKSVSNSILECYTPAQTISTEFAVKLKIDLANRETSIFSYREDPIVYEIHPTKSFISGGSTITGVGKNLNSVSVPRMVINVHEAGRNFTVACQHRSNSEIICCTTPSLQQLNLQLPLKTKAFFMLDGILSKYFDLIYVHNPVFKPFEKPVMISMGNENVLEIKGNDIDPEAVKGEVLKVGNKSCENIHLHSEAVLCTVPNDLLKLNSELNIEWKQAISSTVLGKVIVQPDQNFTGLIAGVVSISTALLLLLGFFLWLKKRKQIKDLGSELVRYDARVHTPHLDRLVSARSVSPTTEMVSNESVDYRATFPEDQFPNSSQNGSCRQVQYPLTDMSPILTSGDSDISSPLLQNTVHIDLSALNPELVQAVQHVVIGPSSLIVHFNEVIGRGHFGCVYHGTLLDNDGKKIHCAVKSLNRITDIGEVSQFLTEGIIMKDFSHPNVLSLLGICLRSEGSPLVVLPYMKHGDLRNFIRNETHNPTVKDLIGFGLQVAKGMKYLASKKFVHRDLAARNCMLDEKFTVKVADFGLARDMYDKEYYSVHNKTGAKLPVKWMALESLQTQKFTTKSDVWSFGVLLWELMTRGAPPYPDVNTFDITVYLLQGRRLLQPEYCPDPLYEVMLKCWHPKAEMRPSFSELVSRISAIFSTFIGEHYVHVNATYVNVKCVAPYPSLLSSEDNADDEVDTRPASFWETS
Chain of Vascular endothelial growth factor receptor 2 (P35968 whole entry): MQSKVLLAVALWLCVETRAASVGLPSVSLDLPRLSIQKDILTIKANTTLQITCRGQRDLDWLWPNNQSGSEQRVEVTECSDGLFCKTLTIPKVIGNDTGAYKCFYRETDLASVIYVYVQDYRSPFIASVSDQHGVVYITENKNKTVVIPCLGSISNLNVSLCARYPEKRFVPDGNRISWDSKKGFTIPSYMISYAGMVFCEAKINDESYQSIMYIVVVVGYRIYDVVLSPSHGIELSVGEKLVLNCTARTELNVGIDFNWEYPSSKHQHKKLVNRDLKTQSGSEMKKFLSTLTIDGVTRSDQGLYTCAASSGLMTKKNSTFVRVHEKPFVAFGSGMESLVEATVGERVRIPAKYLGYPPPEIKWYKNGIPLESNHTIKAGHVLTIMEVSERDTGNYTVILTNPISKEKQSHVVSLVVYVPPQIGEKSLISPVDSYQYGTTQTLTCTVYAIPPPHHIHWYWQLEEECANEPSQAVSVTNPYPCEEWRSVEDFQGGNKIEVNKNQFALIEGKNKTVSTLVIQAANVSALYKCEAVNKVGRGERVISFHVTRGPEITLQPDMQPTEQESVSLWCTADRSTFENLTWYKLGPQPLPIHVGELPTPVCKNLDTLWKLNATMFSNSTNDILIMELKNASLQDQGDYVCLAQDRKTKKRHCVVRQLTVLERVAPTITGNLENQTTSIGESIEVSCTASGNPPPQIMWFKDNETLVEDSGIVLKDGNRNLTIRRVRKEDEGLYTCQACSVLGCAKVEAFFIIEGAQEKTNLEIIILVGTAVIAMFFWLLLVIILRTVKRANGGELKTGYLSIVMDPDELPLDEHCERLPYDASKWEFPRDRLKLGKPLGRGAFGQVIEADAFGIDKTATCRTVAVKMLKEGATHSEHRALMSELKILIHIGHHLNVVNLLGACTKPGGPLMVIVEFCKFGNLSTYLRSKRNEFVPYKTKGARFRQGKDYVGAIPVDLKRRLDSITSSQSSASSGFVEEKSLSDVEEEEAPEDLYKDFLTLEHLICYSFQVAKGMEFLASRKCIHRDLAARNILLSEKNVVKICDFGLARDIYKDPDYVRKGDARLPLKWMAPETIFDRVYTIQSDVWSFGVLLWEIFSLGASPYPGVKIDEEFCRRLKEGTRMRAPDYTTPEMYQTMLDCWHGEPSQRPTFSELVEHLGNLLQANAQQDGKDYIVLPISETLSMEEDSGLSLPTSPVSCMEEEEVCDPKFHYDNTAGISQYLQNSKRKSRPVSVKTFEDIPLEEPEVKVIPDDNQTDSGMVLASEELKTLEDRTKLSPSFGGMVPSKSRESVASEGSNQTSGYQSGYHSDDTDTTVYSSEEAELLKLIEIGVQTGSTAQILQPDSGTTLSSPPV
Chain of ALK tyrosine kinase receptor (Q9UM73 whole entry): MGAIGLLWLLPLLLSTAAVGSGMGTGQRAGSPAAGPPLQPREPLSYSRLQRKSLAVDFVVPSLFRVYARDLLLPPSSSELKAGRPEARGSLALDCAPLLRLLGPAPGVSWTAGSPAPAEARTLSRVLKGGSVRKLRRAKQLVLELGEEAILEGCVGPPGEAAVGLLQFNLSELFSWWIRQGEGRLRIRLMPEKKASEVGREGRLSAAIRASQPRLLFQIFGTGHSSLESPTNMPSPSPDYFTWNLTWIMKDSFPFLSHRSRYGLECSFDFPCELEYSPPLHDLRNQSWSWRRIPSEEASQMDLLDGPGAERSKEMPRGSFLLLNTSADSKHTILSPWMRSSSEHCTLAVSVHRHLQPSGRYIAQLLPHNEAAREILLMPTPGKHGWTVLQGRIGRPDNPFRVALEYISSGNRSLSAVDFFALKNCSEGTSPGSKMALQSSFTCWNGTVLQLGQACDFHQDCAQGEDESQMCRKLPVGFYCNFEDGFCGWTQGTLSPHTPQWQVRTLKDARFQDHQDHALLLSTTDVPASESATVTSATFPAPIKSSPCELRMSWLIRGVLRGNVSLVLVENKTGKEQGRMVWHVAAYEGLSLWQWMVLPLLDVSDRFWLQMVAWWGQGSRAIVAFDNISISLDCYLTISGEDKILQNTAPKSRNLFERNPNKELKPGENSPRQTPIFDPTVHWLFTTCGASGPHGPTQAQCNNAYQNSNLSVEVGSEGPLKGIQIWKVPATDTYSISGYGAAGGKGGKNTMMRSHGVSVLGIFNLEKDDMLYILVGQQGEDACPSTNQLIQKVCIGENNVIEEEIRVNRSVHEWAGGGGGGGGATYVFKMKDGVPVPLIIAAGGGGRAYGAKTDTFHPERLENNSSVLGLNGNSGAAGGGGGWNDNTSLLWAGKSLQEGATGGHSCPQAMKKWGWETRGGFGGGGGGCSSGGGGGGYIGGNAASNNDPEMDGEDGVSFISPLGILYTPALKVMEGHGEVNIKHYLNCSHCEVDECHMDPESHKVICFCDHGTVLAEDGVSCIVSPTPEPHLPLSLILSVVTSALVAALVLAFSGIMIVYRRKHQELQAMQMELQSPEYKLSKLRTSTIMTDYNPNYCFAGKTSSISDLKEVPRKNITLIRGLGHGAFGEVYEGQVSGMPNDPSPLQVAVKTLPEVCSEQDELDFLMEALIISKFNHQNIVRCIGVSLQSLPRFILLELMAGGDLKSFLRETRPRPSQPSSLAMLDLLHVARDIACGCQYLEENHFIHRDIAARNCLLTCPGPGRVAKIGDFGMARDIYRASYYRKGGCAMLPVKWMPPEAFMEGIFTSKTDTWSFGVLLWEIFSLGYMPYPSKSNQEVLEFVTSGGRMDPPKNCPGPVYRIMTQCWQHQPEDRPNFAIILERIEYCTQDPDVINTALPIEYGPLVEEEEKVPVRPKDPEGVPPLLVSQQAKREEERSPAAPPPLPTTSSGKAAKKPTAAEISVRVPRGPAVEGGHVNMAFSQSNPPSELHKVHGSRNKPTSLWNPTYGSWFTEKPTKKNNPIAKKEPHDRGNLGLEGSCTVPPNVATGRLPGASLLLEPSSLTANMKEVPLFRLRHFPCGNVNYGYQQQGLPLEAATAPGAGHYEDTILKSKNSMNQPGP
Chain of Proto-oncogene tyrosine-protein kinase Src (P12931 2-536 limits assumed): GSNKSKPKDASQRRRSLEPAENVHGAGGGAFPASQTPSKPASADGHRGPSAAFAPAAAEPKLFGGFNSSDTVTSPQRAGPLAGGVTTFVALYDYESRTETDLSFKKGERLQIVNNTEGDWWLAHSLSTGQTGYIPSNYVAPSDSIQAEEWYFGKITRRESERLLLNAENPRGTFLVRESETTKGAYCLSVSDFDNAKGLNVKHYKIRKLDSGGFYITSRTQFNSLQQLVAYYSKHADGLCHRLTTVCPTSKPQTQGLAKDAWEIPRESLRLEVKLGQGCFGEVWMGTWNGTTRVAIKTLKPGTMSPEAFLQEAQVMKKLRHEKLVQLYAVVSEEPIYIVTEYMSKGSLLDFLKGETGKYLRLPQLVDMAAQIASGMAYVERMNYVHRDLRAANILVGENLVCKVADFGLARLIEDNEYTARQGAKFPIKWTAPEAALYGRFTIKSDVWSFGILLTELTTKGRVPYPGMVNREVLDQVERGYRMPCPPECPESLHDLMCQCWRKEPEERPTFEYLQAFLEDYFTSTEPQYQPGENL

IC50 [2]: 53 nM
IC50 [4]: 2.9 nM
IC50 (A549/CDDP): 630 nM
inhibition [7]: Active
inhibition [11]: Active
IC50 [13]: > 10 µM
IC50 [15]: > 10 µM
IC50 [18]: 15 nM
IC50 (A549): 350 nM
inhibition [19]: Active
IC50 (MCF7): 1500 nM
IC50 [20]: 850 nM
IC50 [24]: 520 nM
IC50 [28]: 64 nM
IC50 (MDA-MB-231): 3.1 µM
IC50 [29]: 2100 nM
IC50 [30]: 240 nM
IC50 (HT-29 [32]): 73 nM
Structure (SMILES): CCN1CCN(CCCOc2cc3nccc(Oc4c(F)cc(NC(=O)NN5C(=O)CSC5c5c(F)cccc5F)cc4F)c3cc2OC)CC1 (stereo not drawn)
Activity (HT-29 [1]): 10.3%
selectivity ratio [3]: 16.2
Activity (HT-29 [5]): 17.4%
Activity (HT-29 [6]): Dose-dependent effect
Activity (HT-29 [8]): 74.5%
Activity (HT-29 [9]): 11%
Activity (HT-29 [10]): Dose-dependent effect
Activity (HT-29 [12]): 24.3%
Activity (HT-29 [14]): 63.6%
Activity (HT-29 [16]): Dose-dependent effect
Activity (HT-29 [17]): 9.9%
Activity (HT-29 [21]): 70.2%
Activity (HT-29 [22]): 55.1%
Activity (HT-29 [23]): Active
IC50 [25]: 3.8 µM
IC50 (FHC): 1180 nM
Activity (HT-29 [26]): inactive
Activity (HT-29 [27]): Active
Activity (HT-29 [31]): Active
Activity (HT-29 [33]): 9.6%
